# System: patients with atrial fibrillation
# Assay: Placebo-controlled ascending dose study of intravenous tedisamil: conversion to normal sinus rhythm, patients with atrial fibrillation
# Assay type: in vivo, human
# Conditions: for Conversion to NSR at any time within 2.5 hrs after the start of infusion (patients converted out of total) / Conversion to NSR at any time within 2.5 hrs and remaining in NSR until 2.5 hrs after the start of infusion (patients out of total) / Conversion to NSR at any time within 2.5 hrs and remaining in NSR until 2.5 hrs after the start of infusion (percentage of patients) / Conversion to NSR at any time within 2.5 hrs and remaining in NSR until 24 hrs after the start of infusion (patients out of total) / Conversion to NSR at any time within 2.5 hrs and remaining in NSR until 24 hrs after the start of infusion (percentage of patients) / Conversion to NSR at any time within 24 hrs after the start of infusion (patients out of total) / Conversion to NSR at any time within 24 hrs after the start of infusion (percentage of patients) / Conversion to NSR at any time within 24 hrs and remaining in NSR until 24 hrs after the start of infusion (patients out of total) / Conversion to NSR at any time within 24 hrs and remaining in NSR until 24 hrs after the start of infusion (percentage of patients): patients with atrial fibrillation; for Percentage of patients converted to normal sinus rhythm at any time within 2.5 hours after the initiation of the infusion: patients with atrial fibrillation taking beta-blockers
# Protocol: A Multi-Center, Double-Blind, Randomized, Placebo-Controlled, Sequential Ascending Dose Groups Study to evaluate the Efficacy and Safety of Intravenous Tedisamil in the Rapid Conversion to Normal Sinus Rhythm in Patients with Atrial Fibrillation or Flutter was performed.
# • Tedisamil (0.4 mg/kg body weight) • Tedisamil (0.6 mg/kg body weight) • Placebo • Dosages were given as a 30 minute intravenous infusion regimen. 1. Study Design
# This multicenter trial was a double-blind, randomized, placebo-controlled, ascending dose groups study comparing the efficacy and safety of intravenous tedisamil treatment versus placebo in symptomatic patients with atrial fibrillation or flutter (>3 hours and <48 hours). The primary efficacy endpoint of this study was the termination of atrial fibrillation or flutter (for at least 60 seconds) within 2.5 hours after start of the infusion.
# Following screening and baseline assessments, eligible patients were randomized to tedisamil or placebo with a sequential dose escalation approach. In the first stage, patients received 0.4 mg tedisamil/kg body weight or placebo over a 30 minutes infusion period, with half the dose infused during the first 10 minutes and half the dose infused over the remaining 20 minutes. After interim safety evaluation, in the second stage, patients received 0.6 mg tedisamil/kg body weight or placebo, with the same infusion regimen.
# Patients were discharged from the telemetry unit 24 hours post infusion and safety follow up was to be obtained after 28 days. Blinded reviews of 12-lead ECGs (including 60 seconds rhythm strip) and 24 hour Holters to adjudicate the clinical endpoint (conversion to normal sinus rhythm) were performed centrally according to standard guidelines.
# Tedisamil dihydrochloride, 0.4 mg/kg body weight, 0.6.mg/kg body weight was administered intravenously. The total infusion time was 30 minutes, with half the dose infused within 10 minutes, and half the dose infused within the remaining 20 minutes.
# The percentage of patients converted to normal sinus rhythm (for at least 60 seconds) at any time within 2.5 hours after the initiation of the infusion of study drug.
# 6.1.2 Secondary Efficacy • The percentage of patients converted to normal sinus rhythm (for at least 60 seconds) at any time within 2.5 hrs and remaining in sinus rhythm until 2.5 hours after initiation of the intravenous infusion of tedisamil versus placebo. • The percentage of patients converted to normal sinus rhythm (for at least 60 seconds) at any time within 24 hours after initiation of the intravenous infusion of tedisamil versus placebo. • The percentage of patients converted to normal sinus rhythm (for at least 60 seconds) at any time within 24 hrs and remaining in sinus rhythm until 24 hours after initiation of the intravenous infusion of tedisamil versus placebo. • The percentage of patients converted to normal sinus rhythm (for at least 60 seconds) at any time within 2.5 hrs and remaining in sinus rhythm until 24 hours after initiation of the intravenous infusion of tedisamil versus placebo. • The time to conversion after the start of the infusion of tedisamil versus placebo. • The dose- and concentration-response relationships of tedisamil versus placebo.
# The intent-to-treat patient sample was analyzed for efficacy. All tests were two-sided and a p-value <0.05 was considered significant. Differences in percentages of conversion were compared among the treatment groups using the Pearson chi-square statistic. Safety analysis was conducted on the safety patient sample. Numbers and percentages of patients with adverse events were calculated for each treatment group, using MedDRA preferred terms and body systems. Descriptive statistics were summarized by treatment group for changes from baseline in QT, heart rate and blood pressure. […]
# [1] = 0.4 mg/kg iv two-step 30 minute infusion
# [2] = 0.6 mg/kg iv two-step 30 minute infusion
# [3] = Atrial Fibrillation, Female, 0.4 mg/kg, ITT patient sample, patients with DC cardioversion excluded
# [4] = Atrial Fibrillation, Female, 0.6 mg/kg, ITT patient sample, patients with DC cardioversion excluded
# [5] = Atrial Fibrillation, Male, 0.4 mg/kg, ITT patient sample, patients with DC cardioversion excluded
# [6] = Atrial Fibrillation, Male, 0.6 mg/kg, ITT patient sample, patients with DC cardioversion excluded
# [7] = atrial fibrillation, Female, <65 yrs, 0.4 mg/kg, ITT, DC cardioversion excluded
# [8] = atrial fibrillation, Female, <65 yrs, 0.6 mg/kg, ITT, DC cardioversion excluded
# [9] = atrial fibrillation, Female, >=65 yrs, 0.4 mg/kg, ITT, DC cardioversion excluded
# [10] = atrial fibrillation, Female, >=65 yrs, 0.6 mg/kg, ITT, DC cardioversion excluded
# [11] = atrial fibrillation, Male, <65 yrs, 0.4 mg/kg, ITT, DC cardioversion excluded
# [12] = atrial fibrillation, Male, <65 yrs, 0.6 mg/kg, ITT, DC cardioversion excluded
# [13] = atrial fibrillation, Male, >=65 yrs, 0.4 mg/kg, ITT, DC cardioversion excluded
# [14] = atrial fibrillation, Male, >=65 yrs, 0.6 mg/kg, ITT, DC cardioversion excluded
smiles,measurement,setting,value
"C1CCC2(C1)C1CN(CC3CC3)CC2CN(CC2CC2)C1 [Tedisamil, N,N′-dicyclopropylmethyl-9,9-tetramethylene-3,7-diazabicyclo[3,3,1]nonane]",Conversion to NSR at any time within 2.5 hrs after the start of infusion (patients converted out of total),[1],24 out of 52
same,Conversion to NSR at any time within 2.5 hrs and remaining in NSR until 2.5 hrs after the start of infusion (patients out of total),[1],23 out of 52
same,Conversion to NSR at any time within 2.5 hrs and remaining in NSR until 2.5 hrs after the start of infusion (percentage of patients),[1],(44%)
same,Conversion to NSR at any time within 2.5 hrs and remaining in NSR until 24 hrs after the start of infusion (patients out of total),[1],22 out of 42
same,Conversion to NSR at any time within 2.5 hrs and remaining in NSR until 24 hrs after the start of infusion (percentage of patients),[1],(52%)
same,Conversion to NSR at any time within 24 hrs after the start of infusion (patients out of total),[1],26 out of 42
same,Conversion to NSR at any time within 24 hrs after the start of infusion (percentage of patients),[1],(62%)
same,Conversion to NSR at any time within 24 hrs and remaining in NSR until 24 hrs after the start of infusion (patients out of total),[1],24 out of 42
same,Conversion to NSR at any time within 24 hrs and remaining in NSR until 24 hrs after the start of infusion (percentage of patients),[1],(57%)
same,Conversion to NSR at any time within 2.5 hrs after the start of infusion (patients converted out of total),[2],24 out of 42
same,Conversion to NSR at any time within 2.5 hrs and remaining in NSR until 2.5 hrs after the start of infusion (patients out of total),[2],24 out of 42
same,Conversion to NSR at any time within 2.5 hrs and remaining in NSR until 2.5 hrs after the start of infusion (percentage of patients),[2],(57%)
same,Conversion to NSR at any time within 2.5 hrs and remaining in NSR until 24 hrs after the start of infusion (patients out of total),[2],22 out of 37
same,Conversion to NSR at any time within 2.5 hrs and remaining in NSR until 24 hrs after the start of infusion (percentage of patients),[2],(59%)
same,Conversion to NSR at any time within 24 hrs after the start of infusion (patients out of total),[2],26 out of 37
same,Conversion to NSR at any time within 24 hrs after the start of infusion (percentage of patients),[2],(70%)
same,Conversion to NSR at any time within 24 hrs and remaining in NSR until 24 hrs after the start of infusion (patients out of total),[2],24 out of 37
same,Conversion to NSR at any time within 24 hrs and remaining in NSR until 24 hrs after the start of infusion (percentage of patients),[2],(65%)
same,Conversion to NSR at any time within 2.5 hrs after start of infusion (%),[3],35.3%
same,Conversion to NSR at any time within 2.5 hrs after start of infusion (converted/total),[3],6/17
same,Conversion to NSR at any time within 2.5 hrs after start of infusion (%),[4],37.5%
same,Conversion to NSR at any time within 2.5 hrs after start of infusion (converted/total),[4],6/16
same,Conversion to NSR at any time within 2.5 hrs after start of infusion (%),[5],51.4%
same,Conversion to NSR at any time within 2.5 hrs after start of infusion (converted/total),[5],18/35
same,Conversion to NSR at any time within 2.5 hrs after start of infusion (%),[6],69.2%
same,Conversion to NSR at any time within 2.5 hrs after start of infusion (converted/total),[6],18/26
same,Conversion to NSR at any time within 2.5 hrs after start of infusion (%),[7],40.0%
same,Conversion to NSR at any time within 2.5 hrs after start of infusion (converted/total),[7],2/5
same,Conversion to NSR at any time within 2.5 hrs after start of infusion (%),[8],33.3%
same,Conversion to NSR at any time within 2.5 hrs after start of infusion (converted/total),[8],1/3
same,Conversion to NSR at any time within 2.5 hrs after start of infusion (%),[9],33.3%
same,Conversion to NSR at any time within 2.5 hrs after start of infusion (converted/total),[9],4/12
same,Conversion to NSR at any time within 2.5 hrs after start of infusion (%),[10],38.5%
same,Conversion to NSR at any time within 2.5 hrs after start of infusion (converted/total),[10],5/13
same,Conversion to NSR at any time within 2.5 hrs after start of infusion (%),[11],50.0%
same,Conversion to NSR at any time within 2.5 hrs after start of infusion (converted/total),[11],10/20
same,Conversion to NSR at any time within 2.5 hrs after start of infusion (%),[12],72.2%
same,Conversion to NSR at any time within 2.5 hrs after start of infusion (converted/total),[12],13/18
same,Conversion to NSR at any time within 2.5 hrs after start of infusion (%),[13],51.4%
same,Conversion to NSR at any time within 2.5 hrs after start of infusion (converted/total),[13],8/15
same,Conversion to NSR at any time within 2.5 hrs after start of infusion (%),[14],62.5%
same,Conversion to NSR at any time within 2.5 hrs after start of infusion (converted/total),[14],5/8
same,Percentage of patients converted to normal sinus rhythm at any time within 2.5 hours after the initiation of the infusion,0.4 mg group,52%
same,Percentage of patients converted to normal sinus rhythm at any time within 2.5 hours after the initiation of the infusion,0.6 mg group,60%
